System: bacteria
Assay: Antibacterial effect of antibiotics after γ-radiation
Settings: γ-radiation with 25 kGray
Description: In the pharmaceuticals industry are sought γ-sterilized media for use in clean room areas and isolators. These clean room areas must be monitored for microbial contamination, and the product (that is, the microbiological nutrient medium) itself, with which this monitoring is carried out, should not introduce any contamination, but be sterile. The microbiological media are not completely sterile after autoclaving and filling into, for example, Petri dishes or other agar carriers, but have contamination rates in the order of magnitude of 0.1 to approx. 1%. Only as a result of an additional γ-sterilization (or β-sterilization) with high-energy radiation are killed the residual existing contaminations and a sterile product is obtained. However, many antibiotics are destroyed as a result of the γ-sterilization, so that afterward in selective media for yeasts and fungi whose selectivity is based on the addition of antibiotics, this selectivity no longer exists.

Compound | antibacterial effect after γ-radiation
O=C(N[C@H](CO)[C@H](O)c1ccc([N+](=O)[O-])cc1)C(Cl)Cl [chloramphenicol] | completely destroyed
penicillin | essentially reduced

Reference: US6908745B2, “Gamma sterilizable culture medium for the identification of yeasts and fungi” (Biotest AG, priority 2001, dated 2005)
